The text below walks through data of patent publication US20150329558A1, “FUSED HETEROCYCLIC COMPOUNDS AS ION CHANNEL MODULATORS” (Gilead Sciences, Inc., priority 2011, published 2015).

Each structure is given as a SMILES string. Read-outs that look alike come from different tables or passages of the source.

The assay concerns the target wild-type human cardiac sodium channel, hNav1.5 (peak INa) (Homo sapiens, UniProt Q14524). The assay can be described thus: Peak INa screening assay (tonic and use-dependent block). The format is cell-based. The gist of the method: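 Whole-cell automated patch clamp, HEK293 stably expressing hNav1.5 alpha without beta subunits, 23-25° C, holding −100 mV; bath Na⁺ reduced to 20 mM, CsF-based intracellular pH 7.4. Test compound 1 μM; tonic block at 0.1 Hz, use-dependent block at 3 Hz, % peak block after rundown correction.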

[1] abbreviates: % inhibition at 1 μM, tonic block, read-out: NAv1.5*-PEAK-TB-.
Where [2] appears, read: % inhibition at 1 μM, use-dependent block 3 Hz, read-out: NAv1.5*-PEAK-UDB-3 HZ-.
[3] abbreviates: tonic block of peak INa, 0.1 Hz, 1 μM, read-out: Peak TB 1 μM.
Setting [4] is: use-dependent block of peak INa, 3 Hz, 1 μM, read-out: Peak UDB 1 μM.

wild-type human cardiac sodium channel, hNav1.5 (peak INa), sequence (Q14524 whole entry): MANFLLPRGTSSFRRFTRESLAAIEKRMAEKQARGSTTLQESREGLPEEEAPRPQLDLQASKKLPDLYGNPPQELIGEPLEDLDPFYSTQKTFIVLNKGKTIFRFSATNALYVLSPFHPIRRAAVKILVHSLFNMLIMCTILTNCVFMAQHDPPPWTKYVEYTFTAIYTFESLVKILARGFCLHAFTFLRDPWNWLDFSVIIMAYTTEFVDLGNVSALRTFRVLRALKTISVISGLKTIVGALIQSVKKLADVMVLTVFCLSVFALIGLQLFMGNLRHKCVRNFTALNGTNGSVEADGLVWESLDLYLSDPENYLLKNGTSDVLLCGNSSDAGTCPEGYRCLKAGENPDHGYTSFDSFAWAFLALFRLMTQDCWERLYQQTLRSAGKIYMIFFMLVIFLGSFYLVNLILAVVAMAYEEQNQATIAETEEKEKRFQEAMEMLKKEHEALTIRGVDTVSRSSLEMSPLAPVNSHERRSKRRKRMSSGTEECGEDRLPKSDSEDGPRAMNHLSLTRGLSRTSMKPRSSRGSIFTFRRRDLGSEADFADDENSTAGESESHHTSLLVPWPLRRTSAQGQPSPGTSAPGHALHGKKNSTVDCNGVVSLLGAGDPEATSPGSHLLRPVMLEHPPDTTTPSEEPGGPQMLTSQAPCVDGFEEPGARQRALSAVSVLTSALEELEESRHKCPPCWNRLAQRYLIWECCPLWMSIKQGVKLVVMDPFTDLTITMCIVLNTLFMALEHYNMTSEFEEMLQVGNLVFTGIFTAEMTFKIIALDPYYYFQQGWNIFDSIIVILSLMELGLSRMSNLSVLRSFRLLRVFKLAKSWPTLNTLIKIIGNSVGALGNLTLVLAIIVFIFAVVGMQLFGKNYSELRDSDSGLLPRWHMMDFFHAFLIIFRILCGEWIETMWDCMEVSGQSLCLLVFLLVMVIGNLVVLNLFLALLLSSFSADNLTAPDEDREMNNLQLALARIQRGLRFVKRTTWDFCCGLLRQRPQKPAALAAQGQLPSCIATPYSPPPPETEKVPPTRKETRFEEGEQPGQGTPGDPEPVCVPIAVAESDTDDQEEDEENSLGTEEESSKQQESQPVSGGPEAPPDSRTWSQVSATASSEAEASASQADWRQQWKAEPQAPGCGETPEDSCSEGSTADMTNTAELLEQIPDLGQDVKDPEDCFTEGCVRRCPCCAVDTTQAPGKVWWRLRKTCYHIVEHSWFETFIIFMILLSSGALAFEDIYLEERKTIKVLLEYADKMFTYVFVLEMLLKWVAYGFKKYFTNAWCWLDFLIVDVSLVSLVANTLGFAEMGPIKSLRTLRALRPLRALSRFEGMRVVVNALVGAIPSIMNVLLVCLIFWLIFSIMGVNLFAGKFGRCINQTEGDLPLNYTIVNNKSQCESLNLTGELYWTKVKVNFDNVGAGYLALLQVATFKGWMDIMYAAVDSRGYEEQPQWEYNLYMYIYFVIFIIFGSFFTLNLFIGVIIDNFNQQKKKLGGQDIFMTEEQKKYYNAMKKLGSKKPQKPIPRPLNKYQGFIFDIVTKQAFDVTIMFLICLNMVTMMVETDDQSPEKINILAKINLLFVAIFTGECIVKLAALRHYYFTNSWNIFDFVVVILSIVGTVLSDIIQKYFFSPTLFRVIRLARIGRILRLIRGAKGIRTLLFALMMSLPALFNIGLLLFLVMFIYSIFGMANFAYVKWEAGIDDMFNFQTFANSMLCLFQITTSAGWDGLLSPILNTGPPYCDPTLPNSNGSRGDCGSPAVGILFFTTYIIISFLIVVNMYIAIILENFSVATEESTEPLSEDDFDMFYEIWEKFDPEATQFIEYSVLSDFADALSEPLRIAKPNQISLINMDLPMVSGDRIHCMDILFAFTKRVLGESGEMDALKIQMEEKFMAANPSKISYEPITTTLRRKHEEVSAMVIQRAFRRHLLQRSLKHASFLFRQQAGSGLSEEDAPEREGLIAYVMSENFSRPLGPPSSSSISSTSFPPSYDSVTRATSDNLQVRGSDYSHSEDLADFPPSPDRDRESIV

With `Cc1noc(Cn2nnc3ccc(-c4ccc(OC(F)(F)F)cc4)cc3c2=O)n1` [II-3, 3-((3-methyl-1,2,4-oxadiazol-5-yl)methyl)-6-(4-(trifluoromethoxy)phenyl)benzo[d][1,2,3]triazin-4(3H)-one], the inhibition at 1 µM is, setting by setting: under setting [1], 19%; under setting [2], 10%; under setting [3], 19%; under setting [4], 10%.
For `O=c1c2cc(-c3ccc(OC(F)(F)F)cc3)ccc2nnn1Cc1noc(C2CC2)n1` [II-14, 3-((5-cyclopropyl-1,2,4-oxadiazol-3-yl)methyl)-6-(4-(trifluoromethoxy)phenyl)benzo[d][1,2,3]triazin-4(3H)-one], the inhibition at 1 µM by setting is: under setting [1], 7%; under setting [2], 1%; under setting [3], 7%; under setting [4], 1%.
Turning to `O=c1c2cc(-c3ccc(OC(F)(F)F)cc3)ccc2nnn1CCc1ccncn1` [II-17, 3-(2-(pyrimidin-4-yl)ethyl)-6-(4-(trifluoromethoxy)phenyl)benzo[d][1,2,3]triazin-4(3H)-one], the inhibition at 1 µM by setting is: under setting [1], 11%; under setting [2], 7%; under setting [3], 11%; under setting [4], 7%.
`O=c1c2cc(-c3ccc(OC(F)(F)F)cc3)ccc2nnn1CCc1ncccn1` [II-18, 3-(2-(pyrimidin-2-yl)ethyl)-6-(4-(trifluoromethoxy)phenyl)benzo[d][1,2,3]triazin-4(3H)-one]: the inhibition at 1 µM is, setting by setting: under setting [1], 15%; under setting [2], 13%; under setting [3], 15%; under setting [4], 13%.
As to `O=c1c2cc(-c3ccc(OC(F)(F)F)cc3)ccc2nnn1CCOc1ncccn1` [II-32, 3-(2-(pyrimidin-2-yloxy)ethyl)-6-(4-(trifluoromethoxy)phenyl)benzo[d][1,2,3]triazin-4(3H)-one], the inhibition at 1 µM under setting [1] was found to be 16%, the inhibition at 1 µM under setting [2] was determined as 21%, the inhibition at 1 µM under setting [3] is 16% and the inhibition at 1 µM under setting [4] was 21%.
Turning to `N#Cc1ccnc(OCCn2nnc3ccc(-c4ccc(OC(F)(F)F)cc4)cc3c2=O)n1` [II-36, 2-(2-(4-oxo-6-(4-(trifluoromethoxy)phenyl)benzo[d][1,2,3]triazin-3(4H)-yl)ethoxy)pyrimidine-4-carbonitrile], the inhibition at 1 µM under setting [1] came to 7%, the inhibition at 1 µM under setting [2] amounted to 8%, the inhibition at 1 µM under setting [3] is 7% and the inhibition at 1 µM under setting [4] is 8%.
As for `O=c1c2cc(-c3ccc(OC(F)(F)F)cc3)ccc2nnn1CC1(CN2CCOCC2)CC1` [II-40, 3-((1-(morpholinomethyl)cyclopropyl)methyl)-6-(4-(trifluoromethoxy)phenyl)benzo[d][1,2,3]triazin-4(3H)-one], the inhibition at 1 µM runs as follows: under setting [1], 15%; under setting [2], 29%; under setting [3], 15%; under setting [4], 29%.
Regarding `O=c1c2cc(-c3ccc(OC(F)(F)F)cc3)ccc2nnn1Cc1noc(-c2ccccn2)n1` [II-54, 3-((5-(pyridin-2-yl)-1,2,4-oxadiazol-3-yl)methyl)-6-(4-(trifluoromethoxy)phenyl)benzo[d][1,2,3]triazin-4(3H)-one], the inhibition at 1 µM under setting [1] is 5%, the inhibition at 1 µM under setting [2] is 8%, the inhibition at 1 µM under setting [3] came to 5% and the inhibition at 1 µM under setting [4] came to 8%.
Take `O=c1c2cc(-c3ccc(OC(F)(F)F)cc3)ccc2nnn1Cc1nnc(C2CC2)o1` [II-67, 3-((5-cyclopropyl-1,3,4-oxadiazol-2-yl)methyl)-6-(4-(trifluoromethoxy)phenyl)benzo[d][1,2,3]triazin-4(3H)-one]: the inhibition at 1 µM was found to be 12% under setting [1], 7% under setting [2], 12% under setting [3] and 7% under setting [4].
For the molecule `O=c1c2cc(-c3ccc(OC(F)(F)F)cc3)ccc2cnn1CCn1cccn1` [III-9, 2-(2-(1H-pyrazol-1-yl)ethyl)-7-(4-(trifluoromethoxy)phenyl)phthalazin-1(2H)-one], the inhibition at 1 µM was 15% under setting [1], 15% under setting [2], 15% under setting [3] and 15% under setting [4].
Consider `COc1cc(OC)nc(Cn2ncc3ccc(-c4ccc(OC(F)(F)F)cc4)cc3c2=O)n1` [III-19, 2-((4,6-dimethoxypyrimidin-2-yl)methyl)-7-(4-(trifluoromethoxy)phenyl)phthalazin-1 (2H)-one], for which the inhibition at 1 µM reads like this: under setting [1], 14%; under setting [2], 19%; under setting [3], 14%; under setting [4], 19%.
As for `Cc1noc(Cn2cnc3ccc(-c4ccc(OC(F)(F)F)cc4)cc3c2=O)n1` [IV-6, 3-((3-methyl-1,2,4-oxadiazol-5-yl)methyl)-6-(4-(trifluoromethoxy)phenyl)quinazolin-4(3H)-one], the inhibition at 1 µM was found to be 12% under setting [1], 7% under setting [2], 12% under setting [3] and 7% under setting [4].
On to `O=C(c1ncccn1)N1CCc2ccc(-c3ccc(C(F)(F)F)cc3)cc2C1` [IX-7, pyrimidin-2-yl(7-(4-(trifluoromethyl)phenyl)-3,4-dihydroisoquinolin-2(1H)-yl)methanone], for which the inhibition at 1 µM amounted to 12% under setting [1], 17% under setting [2], 12% under setting [3] and 17% under setting [4].
Regarding `O=C1c2cc(-c3ccc(C(F)(F)F)cc3)ccc2OCN1Cc1ccccn1` [VIII-1, 3-(pyridin-2-ylmethyl)-6-(4-(trifluoromethyl)phenyl)-2H-benzo[e][1,3]oxazin-4(3H)-one], the inhibition at 1 µM is, setting by setting: under setting [1], 35%; under setting [2], 26%; under setting [3], 35%; under setting [4], 26%.
On to `O=C1c2cc(-c3ccc(OC(F)(F)F)cc3)ccc2OCN1Cc1ccccn1` [VIII-3, 3-(pyridin-2-ylmethyl)-6-(4-(trifluoromethoxy)phenyl)-2H-benzo[e][1,3]oxazin-4(3H)-one], for which the inhibition at 1 µM came to 21% under setting [1], 12% under setting [2], 21% under setting [3] and 12% under setting [4].
With `O=C1c2cc(-c3ccc(OC(F)(F)F)cc3)ccc2OCN1Cc1ncccn1` [VIII-20, 3-(pyrimidin-2-ylmethyl)-6-(4-(trifluoromethoxy)phenyl)-2H-benzo[e][1,3]oxazin-4(3H)-one], the inhibition at 1 µM is, setting by setting: under setting [1], 27%; under setting [2], 23%.
